For one data set, the target named is T1, KCNJ2 (IK1) (Homo sapiens, UniProt P63252).
T1 sequence (P63252 1-427): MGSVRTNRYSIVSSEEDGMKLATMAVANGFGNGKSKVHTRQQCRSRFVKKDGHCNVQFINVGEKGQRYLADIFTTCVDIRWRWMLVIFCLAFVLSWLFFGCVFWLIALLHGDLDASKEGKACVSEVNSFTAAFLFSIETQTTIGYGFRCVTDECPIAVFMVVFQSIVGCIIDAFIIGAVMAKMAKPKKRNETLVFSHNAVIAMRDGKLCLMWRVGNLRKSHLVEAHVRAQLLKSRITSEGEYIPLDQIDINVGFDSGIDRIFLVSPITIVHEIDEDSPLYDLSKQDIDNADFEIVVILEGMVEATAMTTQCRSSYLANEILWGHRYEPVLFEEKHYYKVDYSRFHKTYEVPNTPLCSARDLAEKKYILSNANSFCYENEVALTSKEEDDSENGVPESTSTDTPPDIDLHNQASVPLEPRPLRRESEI
In words: cell-based. The text has this: For various aspects of cardiac ion channel study, human embryonic kidney (HEK293; ATCC, Manassas, VA, USA) cells were transiently transfected using lipofectAmin2000 (Gibco BRL, New York, NY, USA) according to the manufacturer’s instructions. The hERG (human ether-ago-go-related gene corresponding to IKr), KCNQ1/KCNE1 (the gene corresponding to IKs), KCNJ2 (the gene corresponding to IK1) or SCN5A (the gene corresponding to INa) cDNA was co-transfected with green fluorescence protein, the surface marker protein, to allow assessment of the transfection efficiency. For the calcium current, enzymatically isolated single rat ventricular myocytes were used. Briefly, the hearts were rapidly excised from anaesthetized Sprague–Dawley rats (250–350 g) and perfused via the aorta on a Langendorff apparatus with an oxygenated normal Tyrode (NT) solution for 5 min. […]
The external solution for recording the IhERG, IKs and INa channel currents was NT solution. […] The calcium current was measured in naïve rat ventricular myocytes, cells were superfused with an external solution that consisted of (in mM): 137 choline-Cl, 5 CsCl, 0.5 MgCl2, 2 4-AP, 10 HEPES, 10 glucose and 1.8 CaCl2 (pH 7.4 with NaOH), whereas the intracellular solution used to fill the pipette had the following ionic solution (in mM): 20 CsCl, 100 Cs-aspartate, 10 EGTA, 10 HEPES, 20 TEA-Cl, 5 Mg-ATP (pH 7.25 with KOH). […]

The next data set concerns the target S624A hERG (Homo sapiens, UniProt Q12809, S624A). As to conditions: 3 μM. The text has this: The hERG mutations were constructed by site-directed mutagenesis of WT hERG cDNA in pcDNA3.1 vector using the QuickChange Site-Directed Mutagenesis Kit (Stratagene), and the integrity of the construct was verified by DNA sequencing. The WT hERG (generously donated by Professor Ho, Seoul National University, Korea) and mutant channels were transiently expressed in an HEK-293 cell line using Lipofectamine 2000 (Gibco), according to the manufacturer’s recommendations.

Data set [1] has as its target T2, F656A hERG (Homo sapiens, UniProt Q12809, F656A). The conditions noted are these: 3 μM, -120 mV, high K+.
The target of data set [2] is T2, F656A hERG. The data set is described as follows: in vitro. As to conditions: HEK-293 cells transiently expressing F656A mutant hERG. (Block of hERG is tested as a sign of cardiac risk.)
Another data set has as its system rabbit Purkinje fibers. The data set is described as follows: Action potential recording in rabbit Purkinje fiber. As to conditions: for APA / APD50 / APD90 / RMP / Vmax: 1 Hz pacing.

The values that follow come from publication PMC5891061, “Electrophysiological mechanisms of vandetanib-induced cardiotoxicity: Comparison of action potentials in rabbit Purkinje fibers and pluripotent stem cell-derived cardiomyocytes” (PLoS ONE, 2018).

What is called IC50 is the concentration that inhibits the measured activity by half. Low values mean inhibition by little substance, high ones a need for much substance. The term inhibition denotes how much of the control response was suppressed. Low readings indicate a weak effect, high ones a strong effect.

Description for rabbit Purkinje fibers: This study was conducted in facilities approved by the AAALAC (Association for Assessment and Accreditation of Laboratory Animal Care) International. All procedures were approved by our Institutional Animal Care and Use Committee (IACUC). Female New Zealand white rabbits (1.8–2 kg) were anaesthetized with pentobarbital sodium (45 mg/kg intravenously). Their hearts were rapidly removed and placed in normal Tyrode’s solution: 143 NaCl; 5.4 KCl; 5.0 HEPES (4-(2-hydroxyethyl)-1-piperazineethanesulfonic acid); 0.33 H2PO4; 0.5 MgCl2; 16.6 Glucose; 1.8 CaCl2; pH 7.4 aerated with O2 gas. Purkinje fibers (PFs) were excised from the left ventricle and stored in a chamber superfused with normal Tyrode’s solution at 37.0 ± 0.5 °C and 5 mL/min. Action potentials (APs) were recorded using the conventional intracellular recording technique. The tissue preparation was driven by electrical pulses (duration = 2 ms, frequencies of 1 Hz). The signals of APs were amplified with Geneclamp 500B (Molecular Devices Corporation, Sunnyvale, CA, USA) and recorded by Notocord systems (Croissy-sur-Seine, France) for off-line analysis.

On KCNJ2 (IK1), `COc1cc2c(Nc3ccc(Br)cc3F)ncnc2cc1OCC1CCN(C)CC1` [Vandetanib] had a concentration for half-maximal inhibition (IC50) of 94.5 ± 4.57 µM. For the same compound, the “S624A hERG current” value on S624A hERG turned out to be 78.1 ± 31.0. Moreover, the “F656A hERG current” value at F656A hERG [1] is recorded as -1101.9 ± 122.4. Also, the inhibition at 3 μM on F656A hERG [2] was determined as 27.4 ± 4.8%. In the data set with rabbit Purkinje fibers (0.3 μM), this compound gave an APA of 118.0 ± 1.9 mV, an APD50 of 218.9 ± 20.3 ms, an APD90 of 300.1 ± 21.0 ms and an RMP of -82.2 ± 0.4 mV. In addition, in the data set with rabbit Purkinje fibers (0.3 μM), the Vmax was found to be 380.9 ± 82.9 V/s. For the same compound, in the data set with rabbit Purkinje fibers (1 μM), the “APD90 increase compared to vehicle control” value is 31%, the APA turned out to be 118.1 ± 2.1 mV, the APD90 was 354.0 ± 25.2 ms and the RMP is -82.2 ± 1.2 mV. Also, in the data set with rabbit Purkinje fibers (1 μM), the Vmax was found to be 379.9 ± 91.1 V/s. Further, in the data set with rabbit Purkinje fibers (3 μM), the “APD50 increase compared to vehicle control” value is recorded as 38.9%, the “APD90 increase compared to vehicle control” value is reported as 55.6%, the APA is given as 118.1 ± 1.5 mV and the APD50 was determined as 289.6 ± 21.4 ms. In the data set on rabbit Purkinje fibers (3 μM), the APD90 is 417.1 ± 20.6 ms, the RMP is -82.3 ± 2.5 mV and the Vmax worked out at 382.8 ± 64.6 V/s. Also, the “Effect on RMP, APA, and Vmax” value in the data set with rabbit Purkinje fibers (concentrations up to 3 μM) was “did not significantly alter”.
